Article PMC7794376 (Nature Communications, 2021)
Values after ≈ are worked out from the molar mass of the structure shown. Like-named read-outs stand apart in the source and are kept apart here.

What was measured:
MtbCoaBC = MtbCoaBC (Mycobacterium tuberculosis, UniProt P9WNZ1); test: biochemical; assay type: biochemical; settings: for Activity R1 / Activity R3: slope of absorbance at 360 nm vs time (s); for activity at 0.0625 µM / activity at 0.25 µM / activity at 0.5 µM / activity at 1 µM / activity at 2 µM: relative to average DMSO CT
Sequence of MtbCoaBC (P9WNZ1 whole entry): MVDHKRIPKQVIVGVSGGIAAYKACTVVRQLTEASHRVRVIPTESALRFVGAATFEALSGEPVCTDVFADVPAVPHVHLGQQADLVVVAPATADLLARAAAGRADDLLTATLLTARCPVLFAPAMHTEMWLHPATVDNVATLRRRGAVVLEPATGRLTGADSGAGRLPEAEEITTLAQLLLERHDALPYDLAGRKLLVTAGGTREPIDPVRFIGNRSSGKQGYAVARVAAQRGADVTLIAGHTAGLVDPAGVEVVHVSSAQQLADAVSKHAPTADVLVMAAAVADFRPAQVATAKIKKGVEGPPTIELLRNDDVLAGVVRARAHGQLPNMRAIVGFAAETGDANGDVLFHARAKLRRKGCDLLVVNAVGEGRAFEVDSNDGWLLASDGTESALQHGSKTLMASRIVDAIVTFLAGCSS

M. tuberculosis H37Rv = test: MIC determination in different media; assay type: cell-based; settings: Mycobacterium tuberculosis

O=c1cc(-c2ccc(O)cc2)oc2cc(O)c(O)c(O)c12 [2c]
Activity R1 (MtbCoaBC; 0.03125 uM 2c, replicate R1): 0.0001739
Activity R3 (MtbCoaBC; 0.03125 uM 2c, replicate R3): 0.000177
inhibition at 0.0625 µM (MtbCoaBC; 0.0625 uM 2c, replicate R1, read-out: Inhibition % R1): 8.57%
activity at 0.0625 µM (MtbCoaBC; 0.0625 uM 2c, replicate R1, read-out: Activity % R1): 91.4%
Activity R1 (MtbCoaBC; 0.0625 uM 2c, replicate R1): 0.0001646
inhibition at 0.0625 µM (MtbCoaBC; 0.0625 uM 2c, replicate R2, read-out: Inhibition % R2): 5.71%
activity at 0.0625 µM (MtbCoaBC; 0.0625 uM 2c, replicate R2, read-out: Activity % R2): 94.3%
inhibition at 0.0625 µM (MtbCoaBC; 0.0625 uM 2c, replicate R3, read-out: Inhibition % R3): 10.2%
activity at 0.0625 µM (MtbCoaBC; 0.0625 uM 2c, replicate R3, read-out: Activity % R3): 89.8%
Activity R3 (MtbCoaBC; 0.0625 uM 2c, replicate R3): 0.0001617
inhibition at 0.25 µM (MtbCoaBC; 0.25 uM 2c, replicate R1, read-out: Inhibition % R1): 34%
activity at 0.25 µM (MtbCoaBC; 0.25 uM 2c, replicate R1, read-out: Activity % R1): 66%
Activity R1 (MtbCoaBC; 0.25 uM 2c, replicate R1): 0.0001189
inhibition at 0.25 µM (MtbCoaBC; 0.25 uM 2c, replicate R2, read-out: Inhibition % R2): 32.6%
activity at 0.25 µM (MtbCoaBC; 0.25 uM 2c, replicate R2, read-out: Activity % R2): 67.4%
inhibition at 0.25 µM (MtbCoaBC; 0.25 uM 2c, replicate R3, read-out: Inhibition % R3): 28.9%
activity at 0.25 µM (MtbCoaBC; 0.25 uM 2c, replicate R3, read-out: Activity % R3): 71.1%
Activity R3 (MtbCoaBC; 0.25 uM 2c, replicate R3): 0.0001279
inhibition at 0.5 µM (MtbCoaBC; 0.5 uM 2c, replicate R1, read-out: Inhibition % R1): 56.9%
activity at 0.5 µM (MtbCoaBC; 0.5 uM 2c, replicate R1, read-out: Activity % R1): 43.1%
Activity R1 (MtbCoaBC; 0.5 uM 2c, replicate R1): 0.000077692
inhibition at 0.5 µM (MtbCoaBC; 0.5 uM 2c, replicate R2, read-out: Inhibition % R2): 60.3%
activity at 0.5 µM (MtbCoaBC; 0.5 uM 2c, replicate R2, read-out: Activity % R2): 39.7%
inhibition at 0.5 µM (MtbCoaBC; 0.5 uM 2c, replicate R3, read-out: Inhibition % R3): 53.5%
activity at 0.5 µM (MtbCoaBC; 0.5 uM 2c, replicate R3, read-out: Activity % R3): 46.5%
Activity R3 (MtbCoaBC; 0.5 uM 2c, replicate R3): 0.000083810
inhibition at 1 µM (MtbCoaBC; 1 uM 2c, replicate R1, read-out: Inhibition % R1): 77.6%
activity at 1 µM (MtbCoaBC; 1 uM 2c, replicate R1, read-out: Activity % R1): 22.4%
Activity R1 (MtbCoaBC; 1 uM 2c, replicate R1): 0.000040344
inhibition at 1 µM (MtbCoaBC; 1 uM 2c, replicate R2, read-out: Inhibition % R2): 82.6%
activity at 1 µM (MtbCoaBC; 1 uM 2c, replicate R2, read-out: Activity % R2): 17.4%
inhibition at 1 µM (MtbCoaBC; 1 uM 2c, replicate R3, read-out: Inhibition % R3): 72.1%
activity at 1 µM (MtbCoaBC; 1 uM 2c, replicate R3, read-out: Activity % R3): 27.9%
Activity R3 (MtbCoaBC; 1 uM 2c, replicate R3): 0.000050204
inhibition at 2 µM (MtbCoaBC; 2 uM 2c, replicate R1, read-out: Inhibition % R1): 91.9%
activity at 2 µM (MtbCoaBC; 2 uM 2c, replicate R1, read-out: Activity % R1): 8.07%
Activity R1 (MtbCoaBC; 2 uM 2c, replicate R1): 0.000014525
inhibition at 2 µM (MtbCoaBC; 2 uM 2c, replicate R2, read-out: Inhibition % R2): 95%
activity at 2 µM (MtbCoaBC; 2 uM 2c, replicate R2, read-out: Activity % R2): 5.02%
inhibition at 2 µM (MtbCoaBC; 2 uM 2c, replicate R3, read-out: Inhibition % R3): 84.9%
activity at 2 µM (MtbCoaBC; 2 uM 2c, replicate R3, read-out: Activity % R3): 15.1%
Activity R3 (MtbCoaBC; 2 uM 2c, replicate R3): 0.000027204
activity at 0.03125 µM (MtbCoaBC; read-out: Activity % R1): 96.6%
activity at 0.03125 µM (MtbCoaBC; read-out: Activity % R2): 96.7%
activity at 0.03125 µM (MtbCoaBC; read-out: Activity % R3): 98.3%
IC50 (MtbCoaBC; read-out: IC50 EnzChek MtbCoaBC): 410 ± 30 nM
inhibition at 0.03125 µM (MtbCoaBC; read-out: Inhibition % R1): 3.4%
inhibition at 0.03125 µM (MtbCoaBC; read-out: Inhibition % R2): 3.27%
inhibition at 0.03125 µM (MtbCoaBC; read-out: Inhibition % R3): 1.68%
MIC (M. tuberculosis H37Rv; read-out: Minimum inhibitory concentration (MIC), 7H9/ADC/Glycerol): > 250 µM
MIC (M. tuberculosis H37Rv; read-out: Minimum inhibitory concentration (MIC), 7H9/Cholesterol/Tyloxapol): > 250 µM
MIC (M. tuberculosis H37Rv; read-out: Minimum inhibitory concentration (MIC), GAST/Fe): 125 µM (≈ 35.8 µg/mL)
